Columns and labels:
Test in all cases: relative viability (nuclei count vs DMSO), 5 days (fraction); higher = more cells survive
[1] = compound: CN(c1ncccc1CNc1nc(Nc2ccc3c(c2)CC(=O)N3)ncc1C(F)(F)F)S(C)(=O)=O + CC(C)C[C@H](NC(=O)[C@H](Cc1ccccc1)NC(=O)c1cnccn1)B(O)O [Bortezomib] (partner 0.002 µM)
How it was run: (§1)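 Lung cancer cell lines in 1536-well plates got either a single drug or a fixed anchor-drug dose together with five library-drug doses (not always all listed) in √10 steps, by pin tool, on the day after seeding. Nuclei were counted after 5 days, and relative viability is the treated-to-vehicle ratio of nuclei counts. Values are medians of duplicate plates.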

[2] = compound: CN(c1ncccc1CNc1nc(Nc2ccc3c(c2)CC(=O)N3)ncc1C(F)(F)F)S(C)(=O)=O + Cc1nc(Nc2ncc(C(=O)Nc3c(C)cccc3Cl)s2)cc(N2CCN(CCO)CC2)n1 [Dasatinib] (partner 0.075 µM)
How it was run: as §1

[3] = compound: CN(c1ncccc1CNc1nc(Nc2ccc3c(c2)CC(=O)N3)ncc1C(F)(F)F)S(C)(=O)=O + CCNC(=O)c1noc(-c2cc(C(C)C)c(O)cc2O)c1-c1ccc(CN2CCOCC2)cc1 [Luminespib] (partner 0.01 µM)
How it was run: as §1

[4] = compound: CN(c1ncccc1CNc1nc(Nc2ccc3c(c2)CC(=O)N3)ncc1C(F)(F)F)S(C)(=O)=O + CC(=O)c1c(C)c2cnc(Nc3ccc(N4CCNCC4)cn3)nc2n(C2CCCC2)c1=O [Palbociclib] (partner 0.5 µM)
How it was run: as §1

Cell Line | relative viability ([1]; first compound 0.01 µM) | relative viability ([1]; first compound 0.03162 µM) | relative viability ([1]; first compound 0.1 µM) | relative viability ([1]; first compound 0.3162 µM) | relative viability ([1]; first compound 1 µM) | relative viability ([2]; first compound 0.01 µM) | relative viability ([2]; first compound 0.03162 µM) | relative viability ([2]; first compound 0.1 µM) | relative viability ([2]; first compound 0.3162 µM) | relative viability ([2]; first compound 1 µM) | relative viability ([3]; first compound 0.01 µM) | relative viability ([3]; first compound 0.03162 µM) | relative viability ([3]; first compound 0.1 µM) | relative viability ([3]; first compound 0.3162 µM) | relative viability ([3]; first compound 1 µM) | relative viability ([4]; first compound 0.01 µM) | relative viability ([4]; first compound 0.03162 µM) | relative viability ([4]; first compound 0.1 µM) | relative viability ([4]; first compound 0.3162 µM) | relative viability ([4]; first compound 1 µM)
HARA | 1.12 | 1.07 | 1.13 | 1.2 | 1.09 | 0.228 | 0.17 | 0.19 | 0.201 | 0.217 | 0.589 | 0.887 | 0.602 | 0.606 | 0.549 | 0.211 | 0.276 | 0.231 | 0.203 | 0.247
NCI-H2126 | 1.12 | 1.1 | 1.04 | 1.1 | 1.1 | 0.55 | 0.559 | 0.469 | 0.381 | 0.347 | 0.905 | 0.9 | 0.778 | 0.941 | 0.761 | 0.358 | 0.351 | 0.308 | 0.352 | 0.306
LXF-289 | 1.05 | 1.01 | 0.991 | 0.989 | 0.978 | 0.187 | 0.181 | 0.129 | 0.12 | 0.121 | 0.679 | 0.728 | 0.645 | 0.656 | 0.622 | 0.63 | 0.592 | 0.567 | 0.639 | 0.582
NCI-H460 | 1.18 | 1.39 | 1.13 | 1.07 | 1.13 | 0.62 | 0.505 | 0.462 | 0.456 | 0.436 | 0.0312 | 0.0306 | 0.0284 | 0.0265 | 0.0325 | 0.147 | 0.179 | 0.148 | 0.21 | 0.15
NCI-H2009 | 1.32 | 1.04 | 1.02 | 0.991 | 0.955 | 0.23 | 0.217 | 0.244 | 0.229 | 0.238 | 1.04 | 1.02 | 1.03 | 0.683 | 0.948 | 0.207 | 0.179 | 0.251 | 0.202 | 0.191

Source: the supplement of paper PMC10307832
